{"source": "patent US10119122B2", "about": "“Differentiation and expansion of endothelial cells from pluripotent stem cells and the in vitro formation of vasculature like structures” (Academisch Ziekenhuis Leiden, priority 2013, dated 2018)", "assay_type_in_all_cases": "cell-based, human", "key": {"[1]": {"test_system": "iPSC-derived pericytes/mesenchymal cells", "test": "Contractile smooth muscle marker expression in iPSC-derived pericytes/mesenchymal cells", "conditions": "ALK5 inhibitor", "protocol": "Our differentiation system facilitates simultaneous derivation and expansion of pericytes and ECs from iPSC lines. […] Thus, a renewable source of pericytes/SMCs was created for co-culture with ECs that would in principle be able to simulate endothelial-pericyte interaction in humans.\niPSC-derived pericytes/mesenchymal cells were derived from the CD31− fraction emerging during the endothelial differentiation protocol. CD31− cells were plated on gelatin coated plates in EGM-2 media (Lonza). After 4 days medium was replaced by DMEM+10% FBS supplemented with TGFβ3 (2 ng/ml, Peprotech) and PDGF-BB (4 ng/ml, Peprotech). iPSC-derived pericytes were routinely maintained on gelatin-coated plates in DMEM+10% FBS. Cells were characterized for the expression of pericyte and mesenchymal cell-specific markers by flow cytometry and immunofluorescent staining as describe above.\nECs and pericytes were cultured as described above on gelatin coated coverslips. Cells were fixed with 4% PFA, permeabilized and stained with the following antibodies as described (Orlova et al., Manuscript in preparation): anti-Ve-Cadherin (1:200, CellSignaling), anti-vWF (1:200, Dako), anti-CD31 (1:200, Dako), anti-SM22a (1:200, Abcam), anti-SMA (1:400, Sigma), anti-CNN1 (1:200, Sigma)."}, "[2]": {"test_system": "HHT1-iPSC-derived ECs co-cultured with control iPSC-derived pericytes", "test": "2D endothelial-pericyte co-culture sprouting assay, HHT1 patient ECs", "conditions": "SB431542 added with TGFβ3 (1 ng/ml) or BMP9 (1 ng/ml); day 7; control and HHT1-iPSC ECs (FIG. 17)", "protocol": "(§1) The endothelial capillary-like network formation assay was carried out as previously described but with major modifications (Evensen et al., 2013). These included using both ECs and pericytes derived from human iPSC lines. This is described in more detail elsewhere (Orlova et al., manuscript in preparation). ECs were labelled with the general cytoplasmic labeling dye (PKH-26). For the sprouting assay, 12,000 ECs derived from both control and diseased lines were plated with 50,000 control iPSC-derived pericytes/well on 0.1% gelatin coated 96-well plates in EGM-2 (Lonza, CC-3162). Next day and on the day 4 of the assay, medium was replaced with new EGM-2 media containing tested compounds as indicated in the figure legends. Endothelial-pericyte co-culture was terminated on day 7 of the assay each well immunofluorescently stained for quantification, as follows: co-cultures were fixed with the 4% paraformaldehyde (PFA), permeabilized with the 0.1% TX-100 and blocked with the normal goat serum (Dako). Endothelial sprouts were visualized with the mouse anti-CD31 (Dako, 1:200). In some experiment with the mouse blocking antibodies, rabbit anti-CD31 (Scbt, 1:200) was used instead. Pericytes were visualized with antibodies against SM22 (Sigma, 1:200). The endothelial network was imaged with the BD Pathway 855 system using the 4× or 10× objective and 2×2 (or 3×3) Montage mode. Total area covered by the endothelial sprouts was quantified with the protocol developed within cell image analysis software CellProfiller (Broad Institute). High magnification images were acquired with the SP5 confocal microscope, using 10× and 40× objectives.\nIt was hypothesized that this system might be useful for distinguishing […] versus paracrine effects of endoglin deficiency in HHT1-iPSCs-derived ECs. Therefore, ECs from HHT-iPSC lines in the co-culture assay combined with the pericytes derived from the control iPSCs were examined. Little difference was observed between ECs from HHT1 and control iPSCs in co-culture. ECs from the patient harboring the 1083delAA and IVS 5+2 (T>C) mutation similar endothelial sprout formation as the controls (FIGS. 11A and 11B).\n(§2) Endothelial cell-pericyte co-culture was performed as described previously (Evensen et al., 2013) but using conditions optimized for iPSC-derived ECs and pericytes as described (Orlova et al., manuscript in preparation). In brief, 12,000 and 50,000 iPSC-derived ECs and pericytes were plated, respectively, in each well of a 96-well plate. Next day the co-cultures were refreshed with the specific treatment conditions indicated. The co-culture was fixed on day 7, and EC sprouts stained with anti-CD31 antibody (1:200, Dako) (as described in Orlova et al., manuscript in preparation). Pericytes were visualized with the anti-SM22 antibody (1:200, Abcam). The BD Pathway 855 system was used for automatic image acquisition, with the 4× objective and 2×2 (or in some cases 3×3) montage mode. CellProfiller (Broad Institute) custom pipeline was used for the image quantification."}, "[3]": {"test_system": "control iPSC-derived ECs co-cultured with control iPSC-derived pericytes/mesenchymal cells", "test": "2D endothelial-pericyte co-culture sprouting assay, control ECs", "conditions": "for sprout formation / number of endothelial sprouts: SB431542 (10 μM in FIG. 20 legend); for total area covered by endothelial sprouts: SB431542", "protocol": "as §1\nA two-dimensional co-culture system was first established in vitro consisting of control iPSC-derived ECs cultured with the control iPSC-derived mesenchymal cells (FIG. 10A). The protocol was optimized and adapted to the BD Pathway 855 imaging system, based on the protocol initially described for the co-culture of HUVECs and vascular SMCs (vSMCs) (Evensen et al., 2013). On day 7 of the co-culture, iPSC-derived EC had organized and formed spouts on the top mesenchymal cells, as evidenced by immunofluorescent staining with the EC-specific CD31 and SMC-specific SM22 markers (FIG. 10B).\nas §2"}, "[4]": {"conditions": "day 7, listed as ALK5 inhibitor"}}}
{"smiles": "NC(=O)c1ccc(-c2nc(-c3ccc4c(c3)OCO4)c(-c3ccccn3)[nH]2)cc1", "note": "[SB431542, reference compound]", "values": [{"measurement": "SM22 expression in pericytes", "setting": "[1]", "result": "no effect on SM22 expression in pericytes"}, {"measurement": "rescue of ligand-induced inhibition of sprout formation", "setting": "[2]", "result": "rescued the inhibitory effect of both TGFβ3 and BMP-9"}, {"measurement": "SM22 fluorescence intensity in endothelial-pericyte co-culture", "setting": "[3]; ALK5 inhibitor, day 7, confocal imaging and quantification", "result": "increase in SM22 fluorescence intensity"}, {"measurement": "endothelial cell proliferation (Ki67+ ECs)", "setting": "[3]; SB431542 10 μM, day 7 co-culture", "result": "Increased endothelial cell proliferation"}, {"measurement": "sprout formation / number of endothelial sprouts", "setting": "[3]; day 7", "result": "enhancement of sprout formation"}, {"measurement": "sprout formation / number of endothelial sprouts", "setting": "[3]; [4]", "result": "significant increase in number of endothelial sprouts"}, {"measurement": "total area covered by endothelial sprouts", "setting": "[3]; day 7", "result": "increase in the total area covered by endothelial sprouts"}, {"measurement": "total area covered by endothelial sprouts", "setting": "[3]; [4]", "result": "significant increase"}]}
